Measurements taken from ChEMBL document CHEMBL1136407, “Binding mode of 6ECDCA, a potent bile acid agonist of the farnesoid X receptor (FXR)” (Bioorg Med Chem Lett, 2003).

Target: T1, Bile acid receptor (Homo sapiens, UniProt Q96RI1)
T1 sequence (Q96RI1 whole entry): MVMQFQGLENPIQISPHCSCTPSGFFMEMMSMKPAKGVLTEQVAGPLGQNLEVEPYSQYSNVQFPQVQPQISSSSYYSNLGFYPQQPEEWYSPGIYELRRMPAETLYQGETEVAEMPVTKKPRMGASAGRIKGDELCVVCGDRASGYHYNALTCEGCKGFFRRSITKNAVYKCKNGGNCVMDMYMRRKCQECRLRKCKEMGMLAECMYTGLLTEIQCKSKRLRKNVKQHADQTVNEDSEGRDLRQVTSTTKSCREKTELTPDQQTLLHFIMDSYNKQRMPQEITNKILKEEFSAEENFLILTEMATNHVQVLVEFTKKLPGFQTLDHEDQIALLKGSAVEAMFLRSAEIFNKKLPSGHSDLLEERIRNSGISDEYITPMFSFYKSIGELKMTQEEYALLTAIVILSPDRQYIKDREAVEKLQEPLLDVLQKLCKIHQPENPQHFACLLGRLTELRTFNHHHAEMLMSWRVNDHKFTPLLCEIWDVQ
Experiment: Binding affinity for Farnesoid X Receptor (FXR)

- EC50: > 30 µM
Structure (SMILES): C[C@H](CCC(=O)O)C1CC[C@H]2[C@@H]3[C@H](O)[C@H](Cc4ccccc4)C4C[C@H](O)CC[C@]4(C)[C@H]3CC[C@]12C (stereo partly specified)
